Data as given in patent US7122335B1, “Compounds and methods to enhance rAAV transduction” (priority 1999, dated 2006).

What was measured:
Hela cells [1] = assay: Cy3-labeled rAAV binding to Hela cells at 4° C., heparin competition; type: cell-based, human; details: free heparin at the time of infection
Method: FIGS. 18A–D. Cy3-labeled rAAV infection in Hela cells. Hela cells were infected with Cy3-labeled AV.GFP3ori at an MOI of 500 particles/cells for 90 minutes at 4° C. in the absence of serum. Cells were then washed and either directly fixed in 2% paraformaldehyde for 10 minutes or incubated at 37° C. for an additional 60 or 120 minutes prior to fixation. Prior to viral infections, cells were incubated for 30 minutes in 1 μM 5-chloromethylfluorescein diacetate (Cell Tracker™ Green CMFDA, Molecular Probe) to allow for visualization of cells and labeled virus in dual fluorescent channel images. Representative confocal image of cells infected for 90 minutes at 4° C. followed by a 60 and 120 minute incubation at 37° C. are shown for both Cy3 and dual Cy3/FITC channels (FIG. 18A). The nuclei in dual channel images are marked by Nu. The confocal images shown were merged from three 0.5 μm layers taken within the central region of the cell. FIG. 18B depicts non-confocal images with Nomarski and Cy3 channels for cells infected for 90 minutes at 4° C. […]
To assess endocytosis and nuclear trafficking of AAV following treatment with various agents which may modulate these processes, fluorescently labeled virus was prepared. […] Several experimental conditions evaluated crosslinking reactions with dye:rAAV particle ratios of 0.2, 1, 5, 25, 100, and 200. […]

Hela cells [2] = details: previously shown; cited from earlier work

Substance: heparin
- viral binding of Cy3-labeled rAAV (Hela cells [1]): inhibited in a dose-dependent fashion
- rAAV transduction in Hela cells (Hela cells [2]): inhibit most of rAAV transduction
